# From US9084770B2, “Modulation of insulin like growth factor I receptor expression in cancer” (Antisense Therapeutics, Ltd., priority 2008, dated 2015)
# Key:
# Format in all cases: cell-based, human
# [1] = test system: insulin receptor-B (IR-B); assay: Insulin receptor-B protein in transfected LNCaP and PC3 cells, immunoblot; conditions: highest ATL1101 concentration tested for each cell line (LNCaP, PC3)
# Experimental: (§1) FIGS. 1B(i)-1B(ii) show sequence-specific and dose-dependent inhibition of IGF-IR protein by IGF-IR antisense oligonucleotide in LNCaP (FIG. 1B (i)) and PC-3 (FIG. […]) cells. […] Two days after the second transfection, whole cell detergent lysates were prepared and 30 μg of total protein was subjected to SDS-PAGE and immunoblotted for IGF-IRB subunit, IR-BB subunit and vinculin expression. Oligofectamine, oligofectamine treated cells only. In LNCaP cells, IGF-IR expression was >80% suppressed by 10 nM ATL1101 and was undetectable at 100 nM ATL1101. In PC3 cells, IGF-IR expression was suppressed ˜50% at 10 nM ATL1101, >80% at 50 nM ATL1101 and >90% at 200 nM. […] Vinculin expression is shown as a loading control.
# Ptx-R PC3 cells = assay: Ptx-R PC3 viable cells after transfection with or without Paclitaxel
# Experimental: The number of viable PC3 and PtxR PC3 cells was determined 72 hours after the second transfection.
# […] The number of viable cells remaining was determined 72 hours after the second transfection treatment. ATL1101 treatment enhances the Ptx-R sensitivity to Paclitaxel under standard culture conditions. For example, there was approximately 45% cell viability with 100 nM Paclitaxel and 25 nM control oligodeoxynucleotide whereas, only 25 nM Paclitaxel is needed in the presence of 25 nM ATL1101 to produce the same reduction in cell viability.
# [2] = test system: IGF-IR protein (IGF-IRB subunit); assay: IGF-IR protein in transfected LNCaP and PC3 cells, immunoblot
# Experimental: (§2) Established methods were used to test the activity of IGF-IR antisense oligonucleotide on LNCaP and PC-3 cell growth (crystal violet assay) and apoptosis (FACS). Dose- and sequence-specific suppression of IGF-IR mRNA and protein expression in ATL1101-treated LNCaP and PC3 PC cell lines in vitro were observed by QT-PCR and western blotting. Effects of the IGF-IR antisense oligonucleotide on various putative targets, including IGF-IR and downstream targets were evaluated using western blotting.
# as §1
# [3] = test system: insulin receptor IR-A, IR-B, IR-β protein; assay: Insulin receptor transcripts and protein in PC3 Ptx-R cells
# Text: (§3) The PC3 Ptx-R cells retain sensitivity to ATL1101-induced IGF-IR down regulation at the mRNA and protein level as shown in FIGS. 11A-C. […] ATL1101 and the control oligodeoxynucleotide ISIS 306064 had no effect on either of the alternative spliced isoform transcripts of the insulin receptor, IR-A, IR-B or IR-β protein or vinculin protein levels.
# IGF-IR mRNA = IGF-IR mRNA in PC3 Ptx-R cells; conditions: 10 to 200 nM, compared to oligofectamine transfection reagent
# Text: as §3
# IGF-IRβ subunit protein = IGF-IRβ subunit protein in PC3 Ptx-R cells; conditions: 10 to 200 nM, compared to oligofectamine transfection reagent
# Text: as §3
# PC3 cells = assay: PC3 cell viability, crystal violet assay; conditions: FBS media, achieved by 100 nM, three days after treatment
# Experimental: as §2
# Cells were transfected with indicated concentrations of ATL1101, control oligodeoxynucleotides or oligofectamine as in FIGS. 1A(i)-1A(ii). Three days after treatment, cell viability was determined by crystal violet assay. Viable cell density was normalized to that of cells treated with oligofectamine. Points, means of triplicate analysis; bars, SE. *, p<0.05 differs from control oligodeoxynucleotide treatment group. **, p<0.01 differs from control oligodeoxynucleotide treatment group by Student's t test.
# [4] = test system: Cyclin D1, Cyclin E, p-RB, p27; assay: Cell cycle proteins in LNCaP and PC-3 cells, immunoblot
# Experimental: The Effect of IGF-IR silencing with IGF-IR antisense oligonucleotide (ATL1101) on LNCaP and PC3 cell apoptosis and cell cycle is shown in FIGS. 4A(i)-(ii), 4B, 4C(i)-(ii), and Table 2. Cells were transfected with indicated concentrations of ATL1101, control oligodeoxynucleotide or oligofectamine as in FIGS. 1A(i)-1B(ii). Two days after treatment, cell cycle analysis was determined by flow cytometry using propidium iodide staining. […] In FIGS. 4C(i)-(ii), LNCaP (FIG. 4C (i)) or PC-3 (FIG. 4C (ii)) cells were transfected with indicated concentration of ATL1101 or control oligodeoxynucleotide (ISIS 306064) for two days. Cells were then cultured in FBS media for one day and in serum-free media for one day. Whole cell lysates (30 μg) were subjected to SDS-PAGE and immunoblotted to assess Cyclin D1, Cyclin E, p-RB, total Rb, and p27 protein levels. Oligo, oligofectamine treated cells only.
# [5] = test system: IGF-IRβ, p-AKT, p-ERK1/2, cleaved PARP; assay: Intracellular signaling in LNCaP and PC3 cells, immunoblot; conditions: 100 nM
# Experimental: The suppression of intracellular signaling in IGF-IR antisense oligonucleotide-treated LNCaP (FIG. 3A) and PC3 (FIG. 3B) in vitro is shown in FIGS. 3A-3B. LNCaP or PC3 cells were transfected with 100 nM ATL1101 or control oligodeoxynucleotide (ISIS 306064) for two days. Cells were then cultured in FBS media for one day and in serum-free media for one day. Whole cell lysates (30 μg) were subjected to SDS-PAGE and immunoblotted to assess IGF-IRβ, p-AKT, total AKT, p-ERK1/2, total ERK1/2, cleaved PARP, and vinculin protein levels. Oligo, oligofectamine treated cells only.
substance,measurement,setting,value
"cgaaggaaacaatactccga (CGAAGGAAACAATACTCCGA; 2'-MOE modified, pattern not given here) [ISIS 175317, 2′-MOE-modified IGF-IR antisense oligonucleotide, also known as ATL1101]",suppression of IR-B expression,[1],< 10%
same,Paclitaxel concentration needed to produce the same reduction in cell viability (approximately 45% viability),Ptx-R PC3 cells; in the presence of 25 nM ATL1101,25 nM
same,sensitivity of viable cell number to ATL1101,"Ptx-R PC3 cells; up to 250 nM, 72 hours after second transfection, standard culture conditions",retain ATL1101 sensitivity
same,suppression of IGF-IR protein expression,"[2]; LNCaP cells, 10 nM, two days after second transfection",> 80%
same,IGF-IR protein expression,"[2]; LNCaP cells, 100 nM",undetectable
same,suppression of IGF-IR protein expression,"[2]; PC3 cells, 10 nM",~50%
same,suppression of IGF-IR protein expression,"[2]; PC3 cells, 50 nM",> 80%
same,suppression of IGF-IR protein expression,"[2]; PC3 cells, 200 nM",> 90%
same,"insulin receptor IR-A, IR-B transcripts or IR-β protein levels",[3],no effect
same,IGF-IR mRNA levels,IGF-IR mRNA,specifically reduced
same,IGF-IRβ subunit protein levels,IGF-IRβ subunit protein,specifically reduced
same,maximum reduction of cell viability relative to control,PC3 cells,~60%
same,"activation of Cyclin D1, Cyclin E, p-RB",[4],suppressed
same,p27 protein production,[4],increased
same,IGF-IR expression,[5],undetectable
same,activation of AKT and ERK1/2,[5],suppressed
same,cleaved PARP production,[5],increased
